Laboratory results taken from patent US20250186456A1, “PYRIMIDINE-FUSED CYCLIC COMPOUND AND PREPARATION METHOD AND USE THEREOF” (Genfleet Therapeutics (Shanghai) Inc., priority 2021, published 2025).
Like-named read-outs stand apart in the source and are kept apart here.

Assays:
Type in all cases: cell-based, human
[1] = tested on: p-ERK in AGS cells (KRAS G12D mutation); test: Cell p-ERK assay (HTRF, Advance ERK phospho-T202/Y204 kit); details: AGS cells, 3 hours incubation with compound, HTRF, read-out: AGS p-ERK IC50
Summary of the method: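 AGS cells (endogenous KRAS G12D) seeded at ~20000 cells/well overnight, then treated 3 h with 3.16-fold compound dilutions, 0.1% DMSO final. Lysates assayed for phospho-T202/Y204 ERK by HTRF after 4 h antibody incubation; inhibition vs DMSO and blank, IC50 by four-parameter fit.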

AGS cells (KRAS G12D) = test: Cell proliferation inhibition assay, 3D, CellTiter-Glo 3D, AGS; details: AGS 3D sphere model, 5 days incubation
Summary of the method: (§1)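 Spheroids (800 AsPC-1 or 400 AGS cells/well; RPMI-1640 or F-12K with 10% FBS) formed overnight, then were dosed on day 2 with a 3.16-fold series at 0.1% DMSO. After 5 days, viability was read by CellTiter-Glo 3D luminescence, and IC50 came from four-parameter fits of inhibition versus DMSO control and medium blank.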

[2] = tested on: AsPC-1 cells (KRAS G12D mutation); test: Cell proliferation inhibition assay, 3D, CellTiter-Glo 3D, AsPC-1; details: AsPC-1 3D sphere model, 5 days incubation
Summary of the method: as §1

**Q.** Which results are given for `C#Cc1c(F)ccc2cccc(-c3nc4c5c(nc(OCC(=C)CN6CCOCC6)nc5c3F)N3C[C@H]5CC[C@H](N5)[C@H]3[C@H](C)O4)c12` [Example Z687, (5S,5aS,6S,9R)-2-(8-ethynyl-7-fluoronaphthalen-1-yl)-1-fluoro-5-methyl-12-((2-(morpholinomethyl)allyl)oxy)-5a,6,7,8,9,10-hexahydro-5H-4-oxa-3,10a,11,13,14-pentaaza-6,9-methanonaphtho[1,8-ab]heptalene]?
**A.** IC50 ([1]; Homo sapiens): 193 nM; IC50 (AGS cells (KRAS G12D); Homo sapiens, 120 h): 392 nM; IC50 ([2]; Homo sapiens, ASPC1, 120 h): 513 nM

**Q.** What does the source list for `C#Cc1c(F)ccc2cccc(-c3nc4c5c(nc(OCC67CCCN6[C@H]6C[C@H]6C7)nc5c3F)N3C[C@H]5CC[C@H](N5)[C@H]3[C@H](C)O4)c12` (stereo partly drawn) [Example Z625, (5S,5aS,6S,9R)-2-(8-Ethynyl-7-Fluoronaphthalen-1-Yl)-1-Fluoro-12-(((1aS,6aS)-Hexahydrocyclopropa[b]Pyrrolizin-Sa (3H)-Yl)Methoxy)-5-Methyl-5a,6,7,8,9,10-Hexahydro-5H-4-Oxa-3,10a,11,13,14-Pentaaza-6,9-Methanonaphtho[1,8-Ab]Heptalene]?
**A.** IC50 [1]: 81.9 nM; IC50 (AGS cells (KRAS G12D)): 107 nM; IC50 [2]: 405 nM

**Q.** For `C#Cc1cccc2cc(N)cc(-c3nc4c5c(nc(OCC67C[C@@H](F)CN6CCC7=C)nc5c3F)N3C[C@H]5CC[C@H](N5)[C@H]3[C@H](C)O4)c12` (stereo partly drawn) [Example Z730, 5-ethynyl-4-((5S,5aS,6S,9R)-1-fluoro-12-(((6R)-6-fluoro-1-methylenetetrahydro-1H-pyrrolizin-7a (5H)-yl)methoxy)-S-methyl-5a,6,7,8,9,10-hexahydro-5H-4-oxa-3,10a, 11, 13, 14-pentaaza-6,9-methanonaphtho[1,8-ab]heptalene-2-yl) naphthalen-2-amine], which IC50 [1] is on record?
**A.** 0.54 nM

**Q.** And the IC50 (AGS cells (KRAS G12D))?
**A.** 1.66 nM

**Q.** And the IC50 [2]?
**A.** 3.61 nM

**Q.** With `C#Cc1c(F)ccc2cccc(-c3nc4c5c(nc(OC[C@]67CCCN6CCC7=C)nc5c3F)N3C[C@H]5CC[C@H](N5)[C@H]3[C@H](C)O4)c12` (single isomer, unassigned) [Example Z638] as the compound, how does the IC50 ([1]; Homo sapiens) read?
**A.** 7.79 nM

**Q.** And the IC50 (AGS cells (KRAS G12D); Homo sapiens, 120 h)?
**A.** 19.7 nM

**Q.** And the IC50 ([2]; Homo sapiens, ASPC1, 120 h)?
**A.** 32 nM

**Q.** Which IC50 ([1]; Homo sapiens) does the source give for `C#Cc1cccc2cc(N)cc(-c3nc4c5c(nc(OCC6(CN7CCOCC7)CC6)nc5c3F)N3C[C@H]5CC[C@H](N5)[C@H]3[C@H](C)O4)c12` [Example Z700, 5-Ethynyl-4-((5S,5aS,6S,9R)-1-Fluoro-5-Methyl-12-((1-(Morpholinomethyl)Cyclopropyl)Methoxy)-5a,6,7,8,9,10-Hexahydro-5H-4-Oxa-3,10a, 11,13,14-Pentaaza-6,9-Methanonaphtho[1,8-Ab]Heptalen-2-Yl) Naphthalen-2-Amine] here?
**A.** 0.39 nM

**Q.** What about the IC50 (AGS cells (KRAS G12D); Homo sapiens, 120 h) of the same compound?
**A.** 1.91 nM

**Q.** What about the IC50 ([2]; Homo sapiens, ASPC1, 120 h) of the same compound?
**A.** 2.14 nM

**Q.** `C#Cc1c(F)ccc2cccc(-c3nc4c5c(nc(OCC67CC(=C)CN6[C@H]6C[C@H]6C7)nc5c3F)N3C[C@H]5CC[C@H](N5)[C@H]3[C@H](C)O4)c12` (stereo partly drawn) [Example Z604, (5S,5aS,6S,9R)-2-(8-ethynyl-7-fluoronaphthalen-1-yl)-1-fluoro-5-methyl-12-(((1aS,6aS)-4-methylenehexahydrocyclopropa[b]pyrrolizin-5a (3H)-yl)methoxy)-5a,6,7,8,9,10-hexahydro-5H-4-oxa-3,10a, 11, 13,14-pentaaza-6,9-methanonaphtho[1,8-ab]heptalene] was tested. Which IC50 ([1]; Homo sapiens) did it give?
**A.** 95 nM

**Q.** What about the IC50 (AGS cells (KRAS G12D); Homo sapiens, 120 h) of the same compound?
**A.** 573 nM

**Q.** And the IC50 ([2]; Homo sapiens, ASPC1, 120 h)?
**A.** 468 nM

**Q.** What does the source list for `C#Cc1c(F)ccc2cccc(-c3nc4c5c(nc(OCC67CC(=C)CN6C[C@H](F)C7)nc5c3F)N3C[C@H]5CC[C@H](N5)[C@H]3[C@H](CO)O4)c12` (stereo partly drawn) [Example Z654, ((5R,5aS,6S,9R)-2-(8-ethynyl-7-fluoronaphthalen-1-yl)-1-fluoro-12-(((2R)-2-fluoro-6-methylenetetrahydro-1H-pyrrolizin-7a (5H)-yl)methoxy)-5a,6,7,8,9,10-hexahydro-5H-4-oxa-3,10a,11,13,14-pentaaza-6,9-methanonaphtho[1,8-ab]heptalen-5-yl)methanol]?
**A.** IC50 ([1]; Homo sapiens): 136 nM; IC50 (AGS cells (KRAS G12D); Homo sapiens, 120 h): 726 nM; IC50 ([2]; Homo sapiens, ASPC1, 120 h): 389 nM

**Q.** Which results are given for `C#Cc1c(F)ccc2cccc(-c3nc4c5c(nc(OCC67CC(=C)CN6CC6(CC6)C7)nc5c3F)N3C[C@H]5CC[C@H](N5)[C@H]3[C@H](C)O4)c12` (stereo partly drawn) [Example Z599]?
**A.** IC50 [1]: 27.6 nM; IC50 (AGS cells (KRAS G12D)): 10.8 nM; IC50 [2]: 22.3 nM

**Q.** With `C#Cc1cccc2cc(N)cc(-c3nc4c5c(nc(OCC67CC(=C)CN6CC(F)(F)C7)nc5c3F)N3C[C@H]5CC[C@H](N5)[C@H]3[C@H](C)O4)c12` (stereo partly drawn) [Example Z711, 4-((5S,5aS,6S,9R)-12-((2,2-difluoro-6-methylenetetrahydro-1H-pyrrolizin-7a (5H)-yl)methoxy)-1-fluoro-5-methyl-5a,6,7,8,9,10-hexahydro-5H-4-oxa-3,10a,11,13,14-pentaaza-6,9-methanonaphtho[1,8-ab]heptalen-2-yl)-5-ethynylnaphthalen-2-amine] as the compound, how does the IC50 ([1]; Homo sapiens) read?
**A.** 13.3 nM

**Q.** And the IC50 (AGS cells (KRAS G12D); Homo sapiens, 120 h)?
**A.** 54.2 nM

**Q.** And the IC50 ([2]; Homo sapiens, ASPC1, 120 h)?
**A.** 85.6 nM

**Q.** For `C#Cc1c(F)ccc2cccc(-c3nc4c5c(nc(OC[C@@]67CCCN6C[C@H]6C[C@H]67)nc5c3F)N3C[C@H]5CC[C@H](N5)[C@H]3[C@H](C)O4)c12` (single isomer, unassigned) [Example Z627-2], which IC50 ([1]; Homo sapiens) is on record?
**A.** 59.3 nM

**Q.** And the IC50 (AGS cells (KRAS G12D); Homo sapiens, 120 h)?
**A.** 83.4 nM

**Q.** What about the IC50 ([2]; Homo sapiens, ASPC1, 120 h) of the same compound?
**A.** 287 nM

**Q.** What does the source list for `C#Cc1cccc2nc(N)cc(-c3nc4c5c(nc(OCC67CCCN6CC(F)(F)C7)nc5c3F)N3C[C@H]5CC[C@H](N5)[C@H]3[C@H](C)O4)c12` (stereo partly drawn) [Example Z726, 4-((5S,5aS,6S,9R)-12-((2,2-difluorotetrahydro-1H-pyrrolizin-7a (5H)-yl)methoxy)-1-fluoro-5-methyl-5a,6,7,8,9,10-hexahydro-5H-4-oxa-3,10a, 11,13,14-pentaaza-6,9-methanonaphtho[1,8-ab]heptalene-2-yl)-5-ethynylquinolin-2-amine]?
**A.** IC50 ([1]; Homo sapiens): 78.8 nM; IC50 (AGS cells (KRAS G12D); Homo sapiens, 120 h): 133 nM; IC50 ([2]; Homo sapiens, ASPC1, 120 h): 638 nM

**Q.** With `C#Cc1cccc2cc(N)cc(-c3nc4c5c(nc(O[C@@H]6CCC[C@H]6O)nc5c3F)N3C[C@H]5CC[C@H](N5)[C@H]3[C@H](C)O4)c12` [Example Z718, (1R,2R)-2-(((5S,5aS,6S,9R)-2-(3-amino-8-ethynylnaphthalen-1-yl)-1-fluoro-5-methyl-5a,6,7,8,9,10-hexahydro-5H-4-oxa-3,10a,11,13,14-pentaaza-6,9-methanonaphtho[1,8-ab]heptalen-12-yl)oxy)cyclopentan-1-ol] as the compound, how does the IC50 ([1]; Homo sapiens) read?
**A.** 157 nM

**Q.** What about the IC50 (AGS cells (KRAS G12D); Homo sapiens, 120 h) of the same compound?
**A.** 455 nM

**Q.** And the IC50 ([2]; Homo sapiens, ASPC1, 120 h)?
**A.** 429 nM

**Q.** Which results are given for `C#Cc1cccc2cc(N)cc(-c3nc4c5c(nc(OC[C@@H]6CCCN6CC(F)F)nc5c3F)N3C[C@H]5CC[C@H](N5)[C@H]3[C@H](C)O4)c12` [Example Z733, 4-((5S,5aS,6S,9R)-12-(((S)-1-(2,2-difluoroethyl)pyrrolidin-2-yl)methoxy)-1-fluoro-5-methyl-5a,6,7,8,9,10-hexahydro-5H-4-oxa-3,10a,11,13,14-pentaaza-6,9-methanonaphtho[1,8-ab]heptalen-2-yl)-5-ethynylnaphthalen-2-amine]?
**A.** IC50 ([1]; Homo sapiens): 76 nM; IC50 (AGS cells (KRAS G12D); Homo sapiens, 120 h): 297 nM; IC50 ([2]; Homo sapiens, ASPC1, 120 h): 267 nM

**Q.** `C=C1CN2C[C@H](F)CC2(COc2nc3c4c(nc(-c5cccc(Cl)c5C(F)(F)F)c(F)c4n2)O[C@@H](C)[C@@H]2[C@@H]4CC[C@H](CN32)N4)C1` (stereo partly drawn) [Example Z682, (5S,5aS,6S,9R)-2-(3-chloro-2-(trifluoromethyl)phenyl)-1-fluoro-12-(((2R)-2-fluoro-6-methylenetetrahydro-1H-pyrrolizin-7a (5H)-yl)methoxy)-5-methyl-5a,6,7,8,9,10-hexahydro-5H-4-oxa-3,10a, 11,13,14-pentaaza-6,9-methanonaphtho[1,8-ab]heptalene] was tested. Which IC50 ([1]; Homo sapiens) did it give?
**A.** 82 nM

**Q.** What about the IC50 (AGS cells (KRAS G12D); Homo sapiens, 120 h) of the same compound?
**A.** 146 nM

**Q.** What about the IC50 ([2]; Homo sapiens, ASPC1, 120 h) of the same compound?
**A.** 237 nM

**Q.** Which IC50 [1] does the source give for `C#Cc1c(F)ccc2cccc(-c3nc4c5c(nc(OC[C@]67CCCN6CCC7=C)nc5c3F)N3C[C@H]5CC[C@H](N5)[C@H]3[C@H](C(F)F)O4)c12` [Example Z648, (5R,5aS,6S,9R)-5-(difluoromethyl)-2-(8-etbynyl-7-fluoronaphthalen-1-yl)-1-fluoro-12-(((R)-1-methylenetetrahydro-1H-pyrrolizin-7a (5H)-yl)methoxy)-5a,6,7,8,9,10-hexahydro-5H-4-oxa-3,10a, 11,13,14-pentaaza-6,9-methanonaphtho[1,8-ab]heptalene] here?
**A.** 14.6 nM

**Q.** What about the IC50 (AGS cells (KRAS G12D)) of the same compound?
**A.** 39.1 nM

**Q.** And the IC50 [2]?
**A.** 53.5 nM

**Q.** For `C#Cc1c(F)ccc2cccc(-c3nc4c5c(nc(OCC67CCCN6CCC7=C(F)F)nc5c3F)N3C[C@H]5CC[C@H](N5)[C@H]3[C@H](C)O4)c12` (stereo partly drawn) [Example Z612, (5S,5aS,6S,9R)-12-((1-(difluoromethylene)tetrahydro-1H-pyrrolizin-7a (5H)-yl)methoxy)-2-(8-ethynyl-7-fluoronaphthalen-1-yl)-1-fluoro-5-methyl-5a,6,7,8,9,10-hexahydro-5H-4-oxa-3,10a, 11,13,14-pentaaza-6,9-methanonaphtho[1,8-ab]heptalene], which IC50 ([1]; Homo sapiens) is on record?
**A.** 99.3 nM

**Q.** And the IC50 (AGS cells (KRAS G12D); Homo sapiens, 120 h)?
**A.** 65.4 nM

**Q.** What about the IC50 ([2]; Homo sapiens, ASPC1, 120 h) of the same compound?
**A.** 124 nM

**Q.** How did the IC50 ([1]; Homo sapiens) turn out when `CCc1cccc2cc(O)cc(-c3nc4c5c(nc(OC[C@@]67CCCN6C[C@H](F)C7)nc5c3F)N3C[C@H]5CC[C@H](N5)[C@H]3CO4)c12` [Example Z140-1, 5-Ethyl-4-((5aS,6S,9R)-1-Fluoro-12-(((2R,7aS)-2-Fluorotetrahydro-1H-Pyrrolizin-7a (5H)-Yl)Methoxy)-5a,6,7,8,9,10-Hexahydro-5H-4-Oxa-3,10a,11,13,14-Pentaaza-6,9-Methanonaphtho[1,8-Ab]Heptalen-2-Yl) Naphthalen-2-Ol] was run?
**A.** 2.85 nM

**Q.** What about the IC50 (AGS cells (KRAS G12D); Homo sapiens, 120 h) of the same compound?
**A.** 4 nM

**Q.** What about the IC50 ([2]; Homo sapiens, ASPC1, 120 h) of the same compound?
**A.** 21.1 nM
